# ChEMBL document CHEMBL1201862, “PubChem BioAssay data set” (2004)
# pIC50: −log10 of the molar value. Active and inactive are the calls of the source.
# Key:
# [1] = Intein inhibitors as potential Tuberculosis drugs, a cytotoxicity screen. [Related pubchem assays (depositor defined):AID2221, AID2223, AID434968, AID435010, AID449749, AID449750, AID489010]; type: functional
# [2] = inhibitors of intracellular T. cruzi replication, confirmation, NIH3T3 host cells, beta-gal luminescence (AID 2044); type: functional, cell-based;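 further: intracellular parasites grown in NIH/3T3 mouse fibroblasts as host cells; luminescent beta-galactosidase reporter signal from transgenic T. cruzi replicating inside host cells; inhibitors lower the luminescence signal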
# Protein RecA = biological target: T1, Protein RecA (Mycobacterium tuberculosis, UniProt P9WHJ3); test: Fluorescence Cell-Free Homogeneous Dose Retest to Identify Inhibitors of RecA-Intein Splicing Activity. [Related pubchem assays (depositor defined):AID2097, AID2223, AID489010, AID492950]; type: functional
# T1 sequence (P9WHJ3 whole entry): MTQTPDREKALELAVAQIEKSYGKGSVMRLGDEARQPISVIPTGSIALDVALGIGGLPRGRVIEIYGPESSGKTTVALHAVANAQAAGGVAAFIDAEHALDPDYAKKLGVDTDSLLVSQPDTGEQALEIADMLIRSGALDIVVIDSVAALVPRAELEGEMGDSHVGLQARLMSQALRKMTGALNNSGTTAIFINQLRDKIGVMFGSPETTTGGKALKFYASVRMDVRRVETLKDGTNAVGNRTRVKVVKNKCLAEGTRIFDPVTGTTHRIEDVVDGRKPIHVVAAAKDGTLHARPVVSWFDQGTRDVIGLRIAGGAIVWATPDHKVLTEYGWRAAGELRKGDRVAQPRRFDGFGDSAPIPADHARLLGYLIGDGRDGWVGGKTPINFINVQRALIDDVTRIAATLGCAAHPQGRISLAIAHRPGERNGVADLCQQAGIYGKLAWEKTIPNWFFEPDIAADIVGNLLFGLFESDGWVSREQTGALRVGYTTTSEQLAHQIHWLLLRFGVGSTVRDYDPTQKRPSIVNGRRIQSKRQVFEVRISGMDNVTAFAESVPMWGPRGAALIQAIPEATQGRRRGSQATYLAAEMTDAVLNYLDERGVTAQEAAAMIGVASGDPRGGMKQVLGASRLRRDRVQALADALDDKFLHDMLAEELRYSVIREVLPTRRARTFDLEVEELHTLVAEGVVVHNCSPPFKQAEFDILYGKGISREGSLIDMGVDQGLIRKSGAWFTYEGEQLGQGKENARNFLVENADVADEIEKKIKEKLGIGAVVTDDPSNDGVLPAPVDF
# [3] = cytotoxicity toward NIH3T3 fibroblasts, dose response, counter-screen, cell-based, ATP luminescence, mouse fibroblasts (AID 2010); type: functional;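 further: cells exposed to compound for about 90 hours before reading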
# [4] = biological target: T2, Replicative DNA helicase DnaB (Mycobacterium tuberculosis, UniProt P9WMR3); test: DnaB intein splicing inhibitors, dose response, biochemical, cell-free fluorescence (AID 449749); type: functional
# T2 sequence (P9WMR3 whole entry): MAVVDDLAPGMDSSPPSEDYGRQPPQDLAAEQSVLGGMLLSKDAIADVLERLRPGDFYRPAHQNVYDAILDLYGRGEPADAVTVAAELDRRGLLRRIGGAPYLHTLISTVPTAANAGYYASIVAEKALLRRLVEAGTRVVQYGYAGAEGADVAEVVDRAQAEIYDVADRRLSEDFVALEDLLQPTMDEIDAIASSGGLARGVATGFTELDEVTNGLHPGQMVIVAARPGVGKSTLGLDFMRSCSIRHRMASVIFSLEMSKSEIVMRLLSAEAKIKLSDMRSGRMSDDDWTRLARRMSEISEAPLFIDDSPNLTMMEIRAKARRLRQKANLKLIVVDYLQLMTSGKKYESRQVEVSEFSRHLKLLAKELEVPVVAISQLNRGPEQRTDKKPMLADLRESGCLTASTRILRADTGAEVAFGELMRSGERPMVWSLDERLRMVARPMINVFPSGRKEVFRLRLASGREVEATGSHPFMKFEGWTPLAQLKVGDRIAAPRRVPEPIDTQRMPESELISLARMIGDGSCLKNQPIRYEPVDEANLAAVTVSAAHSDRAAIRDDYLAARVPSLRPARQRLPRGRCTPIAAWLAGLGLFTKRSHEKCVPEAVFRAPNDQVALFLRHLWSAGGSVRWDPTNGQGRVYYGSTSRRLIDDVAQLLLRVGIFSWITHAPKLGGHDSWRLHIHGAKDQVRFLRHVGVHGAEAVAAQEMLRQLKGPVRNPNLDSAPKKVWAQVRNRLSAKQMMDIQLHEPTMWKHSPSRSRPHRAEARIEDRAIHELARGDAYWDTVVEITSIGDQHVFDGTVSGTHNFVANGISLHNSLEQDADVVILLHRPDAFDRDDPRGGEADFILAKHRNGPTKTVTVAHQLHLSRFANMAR
# [5] = biological target: T3, Calpain-2 catalytic subunit (Sus scrofa, UniProt P43367); test: pig calpain II inhibitor potency, dose response, biochemical, fluorogenic peptide substrate (AID 1420); type: functional
# T3 sequence (P43367 whole entry): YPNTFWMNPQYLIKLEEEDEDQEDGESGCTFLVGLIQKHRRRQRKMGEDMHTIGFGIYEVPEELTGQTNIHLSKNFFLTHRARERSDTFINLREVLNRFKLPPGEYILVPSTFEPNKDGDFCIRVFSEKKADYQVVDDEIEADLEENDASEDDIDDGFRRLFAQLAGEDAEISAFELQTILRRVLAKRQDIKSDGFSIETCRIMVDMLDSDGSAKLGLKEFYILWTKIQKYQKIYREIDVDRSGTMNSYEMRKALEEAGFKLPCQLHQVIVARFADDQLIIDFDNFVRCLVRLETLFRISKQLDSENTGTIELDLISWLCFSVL
# Hexokinase = Hexokinase (Trypanosoma brucei, UniProt Q38C41); test: Confirmation assay for inhibitors of Trypanosoma brucei hexokinase 1-Analogue-first series. [Related pubchem assays (depositor defined):AID1430, AID1632, AID2516, AID2560, AID2579, AID2600, AID449725, AID492951]; type: functional
# Chain of Hexokinase (Q38C41 whole entry): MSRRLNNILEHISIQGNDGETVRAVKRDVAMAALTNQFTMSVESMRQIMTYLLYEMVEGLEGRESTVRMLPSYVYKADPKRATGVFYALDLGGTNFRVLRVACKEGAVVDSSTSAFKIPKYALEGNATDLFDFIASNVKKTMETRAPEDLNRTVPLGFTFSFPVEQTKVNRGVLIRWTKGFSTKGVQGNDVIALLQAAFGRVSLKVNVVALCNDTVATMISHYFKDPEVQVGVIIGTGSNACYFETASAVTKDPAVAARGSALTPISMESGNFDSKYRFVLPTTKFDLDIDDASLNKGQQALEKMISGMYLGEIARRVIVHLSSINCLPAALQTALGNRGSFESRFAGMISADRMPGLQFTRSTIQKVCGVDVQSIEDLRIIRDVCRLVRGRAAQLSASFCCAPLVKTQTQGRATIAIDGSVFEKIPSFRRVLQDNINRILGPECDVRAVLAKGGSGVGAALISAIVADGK
# [6] = biological target: Eukaryotic translation initiation factor 4E (Mus musculus, UniProt P63073); test: eIF4E–eIF4G protein interaction inhibitors, dose response, biochemical, TR-FRET (AID 855); type: functional;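 further: potency for disrupting eIF4E binding to eIF4GI seen as loss of FRET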
# Chain of Eukaryotic translation initiation factor 4E (P63073 whole entry): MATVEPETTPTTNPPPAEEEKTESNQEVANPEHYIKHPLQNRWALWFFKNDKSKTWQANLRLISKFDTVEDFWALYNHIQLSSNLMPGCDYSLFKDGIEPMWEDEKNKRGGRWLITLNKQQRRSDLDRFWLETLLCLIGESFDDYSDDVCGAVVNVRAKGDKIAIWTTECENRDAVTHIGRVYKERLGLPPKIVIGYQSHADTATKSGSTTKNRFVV
# [7] = biological target: T4, Dual specificity protein phosphatase 6 (Rattus norvegicus, UniProt Q64346); test: MKP-3 phosphatase inhibitors, primary screen, biochemical, rat enzyme, in vitro (AID 425)
# T4 sequence (Q64346 whole entry): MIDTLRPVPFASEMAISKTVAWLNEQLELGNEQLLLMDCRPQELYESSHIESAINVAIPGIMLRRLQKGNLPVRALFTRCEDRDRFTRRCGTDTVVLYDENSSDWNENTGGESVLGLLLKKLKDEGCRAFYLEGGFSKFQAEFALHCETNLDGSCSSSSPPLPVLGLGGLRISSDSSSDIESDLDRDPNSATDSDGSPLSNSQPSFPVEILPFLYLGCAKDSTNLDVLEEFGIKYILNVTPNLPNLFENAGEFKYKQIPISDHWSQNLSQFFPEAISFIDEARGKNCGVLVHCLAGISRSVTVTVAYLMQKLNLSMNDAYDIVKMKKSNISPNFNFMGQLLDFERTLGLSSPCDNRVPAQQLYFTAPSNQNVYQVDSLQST
# [8] = biological target: T5, Polyadenylate-binding protein 1 (Homo sapiens, UniProt P11940); test: PABP1 MLLE–PAM2 binding inhibitor potency, dose response, biochemical, fluorescence polarization, FITC-PAM2 peptide (AID 602259); type: functional; details: read-out: IC50_Mean
# T5 sequence (P11940 whole entry): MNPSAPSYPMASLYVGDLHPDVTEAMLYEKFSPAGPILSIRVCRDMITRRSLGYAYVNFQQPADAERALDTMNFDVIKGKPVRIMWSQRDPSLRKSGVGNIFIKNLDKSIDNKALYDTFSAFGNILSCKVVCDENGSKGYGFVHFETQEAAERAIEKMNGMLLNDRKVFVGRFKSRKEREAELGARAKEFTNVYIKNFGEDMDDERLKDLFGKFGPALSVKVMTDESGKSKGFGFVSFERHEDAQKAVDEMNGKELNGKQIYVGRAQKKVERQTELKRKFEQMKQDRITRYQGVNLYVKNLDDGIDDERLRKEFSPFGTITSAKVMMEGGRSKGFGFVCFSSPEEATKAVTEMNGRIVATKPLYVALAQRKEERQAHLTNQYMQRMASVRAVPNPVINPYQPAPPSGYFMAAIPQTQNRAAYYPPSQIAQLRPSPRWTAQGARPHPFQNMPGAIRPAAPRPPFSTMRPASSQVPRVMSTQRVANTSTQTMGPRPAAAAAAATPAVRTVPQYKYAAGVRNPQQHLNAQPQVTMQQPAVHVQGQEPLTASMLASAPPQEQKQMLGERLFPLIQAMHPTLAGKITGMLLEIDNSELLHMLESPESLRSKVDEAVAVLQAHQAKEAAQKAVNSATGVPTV
# [9] = biological target: T6, Voltage-gated N-type calcium channel alpha-1B subunit/Amyloid beta A4 precursor protein-binding family A member 1 (Homo sapiens, UniProt Q00975+Q02410); type: protein assay
# T6 sequence (Q00975 whole entry): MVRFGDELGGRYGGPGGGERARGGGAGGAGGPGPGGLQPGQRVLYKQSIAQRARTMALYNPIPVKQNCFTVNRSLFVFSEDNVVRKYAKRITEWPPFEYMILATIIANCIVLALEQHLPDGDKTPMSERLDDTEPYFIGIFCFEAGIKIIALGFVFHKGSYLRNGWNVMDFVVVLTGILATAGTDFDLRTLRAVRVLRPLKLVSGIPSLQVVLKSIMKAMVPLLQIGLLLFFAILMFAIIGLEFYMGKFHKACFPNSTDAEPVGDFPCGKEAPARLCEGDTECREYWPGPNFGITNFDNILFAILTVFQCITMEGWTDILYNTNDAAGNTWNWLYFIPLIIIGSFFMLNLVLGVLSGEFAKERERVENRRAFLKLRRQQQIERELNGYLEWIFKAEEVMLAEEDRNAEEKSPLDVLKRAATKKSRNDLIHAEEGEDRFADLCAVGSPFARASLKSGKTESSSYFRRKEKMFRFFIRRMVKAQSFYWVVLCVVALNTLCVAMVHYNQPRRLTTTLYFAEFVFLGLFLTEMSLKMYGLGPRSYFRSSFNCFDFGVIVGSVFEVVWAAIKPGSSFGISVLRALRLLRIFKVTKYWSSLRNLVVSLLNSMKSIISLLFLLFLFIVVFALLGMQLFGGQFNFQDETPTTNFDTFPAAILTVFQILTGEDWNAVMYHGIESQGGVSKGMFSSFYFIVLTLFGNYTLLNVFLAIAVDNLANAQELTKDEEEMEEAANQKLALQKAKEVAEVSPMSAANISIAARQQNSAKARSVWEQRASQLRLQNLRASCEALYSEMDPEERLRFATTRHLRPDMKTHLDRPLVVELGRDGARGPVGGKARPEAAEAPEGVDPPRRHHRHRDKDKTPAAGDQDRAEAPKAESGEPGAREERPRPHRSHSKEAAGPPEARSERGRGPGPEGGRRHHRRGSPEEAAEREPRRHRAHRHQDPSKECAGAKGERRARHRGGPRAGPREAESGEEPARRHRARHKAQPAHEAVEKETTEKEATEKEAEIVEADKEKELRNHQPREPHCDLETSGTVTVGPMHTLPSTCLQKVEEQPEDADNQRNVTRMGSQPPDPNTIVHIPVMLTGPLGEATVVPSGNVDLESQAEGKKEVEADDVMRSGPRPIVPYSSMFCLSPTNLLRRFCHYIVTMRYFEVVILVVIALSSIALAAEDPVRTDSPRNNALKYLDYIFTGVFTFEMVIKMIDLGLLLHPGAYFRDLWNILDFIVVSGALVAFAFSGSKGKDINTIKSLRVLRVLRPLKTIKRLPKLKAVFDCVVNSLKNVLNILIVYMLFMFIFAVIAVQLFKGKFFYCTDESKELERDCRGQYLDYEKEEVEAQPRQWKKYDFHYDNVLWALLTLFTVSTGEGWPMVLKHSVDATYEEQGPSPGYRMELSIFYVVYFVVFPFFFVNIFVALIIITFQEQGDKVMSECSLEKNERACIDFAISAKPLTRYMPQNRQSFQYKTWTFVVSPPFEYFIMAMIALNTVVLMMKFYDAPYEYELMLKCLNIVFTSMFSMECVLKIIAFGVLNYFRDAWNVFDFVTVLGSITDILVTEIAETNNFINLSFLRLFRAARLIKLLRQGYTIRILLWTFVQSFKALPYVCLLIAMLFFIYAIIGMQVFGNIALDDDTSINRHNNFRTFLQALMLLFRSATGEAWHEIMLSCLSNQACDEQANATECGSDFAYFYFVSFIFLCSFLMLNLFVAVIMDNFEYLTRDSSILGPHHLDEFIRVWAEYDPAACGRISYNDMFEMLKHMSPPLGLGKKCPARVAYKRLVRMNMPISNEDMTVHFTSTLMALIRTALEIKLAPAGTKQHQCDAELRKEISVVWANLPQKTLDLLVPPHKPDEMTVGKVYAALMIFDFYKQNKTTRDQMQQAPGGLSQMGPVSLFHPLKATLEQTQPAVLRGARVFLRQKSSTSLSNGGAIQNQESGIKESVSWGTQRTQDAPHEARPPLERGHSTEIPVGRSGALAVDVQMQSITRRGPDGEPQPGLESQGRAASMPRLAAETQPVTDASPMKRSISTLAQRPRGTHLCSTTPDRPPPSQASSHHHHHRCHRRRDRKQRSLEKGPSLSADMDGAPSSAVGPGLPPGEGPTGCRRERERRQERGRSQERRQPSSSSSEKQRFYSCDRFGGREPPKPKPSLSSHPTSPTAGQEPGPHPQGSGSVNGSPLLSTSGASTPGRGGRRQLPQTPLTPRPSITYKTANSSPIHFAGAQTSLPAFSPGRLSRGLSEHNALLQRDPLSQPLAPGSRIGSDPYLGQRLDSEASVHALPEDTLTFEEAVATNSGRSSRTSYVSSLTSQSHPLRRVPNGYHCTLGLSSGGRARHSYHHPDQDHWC
# T6 sequence (Q02410 whole entry): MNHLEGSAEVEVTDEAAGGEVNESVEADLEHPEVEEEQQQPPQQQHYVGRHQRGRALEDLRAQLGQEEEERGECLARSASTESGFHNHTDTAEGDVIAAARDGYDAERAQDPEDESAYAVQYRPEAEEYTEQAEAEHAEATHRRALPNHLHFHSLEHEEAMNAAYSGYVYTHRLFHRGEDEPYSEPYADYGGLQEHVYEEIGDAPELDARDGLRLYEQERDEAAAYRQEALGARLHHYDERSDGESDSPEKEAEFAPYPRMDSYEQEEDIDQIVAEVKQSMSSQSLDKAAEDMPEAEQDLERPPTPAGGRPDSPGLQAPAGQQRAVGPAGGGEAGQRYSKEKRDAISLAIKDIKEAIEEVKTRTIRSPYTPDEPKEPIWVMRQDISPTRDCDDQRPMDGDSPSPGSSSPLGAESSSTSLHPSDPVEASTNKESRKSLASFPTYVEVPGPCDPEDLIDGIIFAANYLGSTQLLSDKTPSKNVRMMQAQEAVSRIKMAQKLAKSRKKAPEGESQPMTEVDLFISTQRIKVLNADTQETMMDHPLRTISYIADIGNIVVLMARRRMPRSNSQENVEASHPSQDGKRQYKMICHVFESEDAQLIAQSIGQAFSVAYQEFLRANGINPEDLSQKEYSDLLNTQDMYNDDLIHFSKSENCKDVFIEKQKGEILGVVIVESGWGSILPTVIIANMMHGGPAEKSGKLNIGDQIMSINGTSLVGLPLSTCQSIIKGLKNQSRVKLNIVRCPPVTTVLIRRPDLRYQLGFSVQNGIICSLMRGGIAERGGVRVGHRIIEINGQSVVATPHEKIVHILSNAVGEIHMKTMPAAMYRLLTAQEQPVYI
# [10] = biological target: T6, Voltage-gated N-type calcium channel alpha-1B subunit/Amyloid beta A4 precursor protein-binding family A member 1; type: protein assay; remark: listed apart in the source
# [11] = biological target: T7, Dual specificity protein phosphatase 3 (Homo sapiens, UniProt P51452); test: VHR1 phosphatase inhibitors, primary screen, biochemical, absorbance, uHTS (AID 1654)
# T7 sequence (P51452 whole entry): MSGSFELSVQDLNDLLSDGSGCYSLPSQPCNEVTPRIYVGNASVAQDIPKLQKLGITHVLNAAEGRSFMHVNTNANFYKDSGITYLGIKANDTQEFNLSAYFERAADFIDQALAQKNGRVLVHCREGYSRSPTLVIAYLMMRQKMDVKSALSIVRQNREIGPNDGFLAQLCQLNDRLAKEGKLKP
# [12] = biological target: T5, Polyadenylate-binding protein 1; test: PABP1 MLLE–PAM2 interaction inhibitors, dose response, miRNA deadenylation inhibitor project, biochemical, fluorescence polarization, Cy5-PAM2 peptide, secondary (AID 602260); type: functional; details: read-out: IC50_Mean
# [13] = biological target: T7, Dual specificity protein phosphatase 3; test: VHR1 phosphatase inhibitors, biochemical (AID 1878)
# [14] = biological target: Induced myeloid leukemia cell differentiation protein Mcl-1 (Homo sapiens, UniProt Q07820); type: functional
# CAAX prenyl protease 2 = CAAX prenyl protease 2 (Saccharomyces cerevisiae S288c, UniProt Q03530); type: biochemical
# [15] = tested on: Streptococcus sp. 'group A'; test: growth inhibition of control SK(-) GAS strain, dose response, counter-screen for streptokinase expression inhibitor project, luminescence, kanamycin, BacTiterGlo, confirmation (AID 1900); type: functional, organism-based
# cells [16] = type: functional
# [17] = THP-1 cell cytotoxicity, dose response, cytotoxicity control for non-replicating M. tuberculosis project (AID 489025); type: functional
# fMet-Leu-Phe receptor = biological target: T8, fMet-Leu-Phe receptor (Homo sapiens, UniProt P21462); test: FPR ligands, dose response (AID 519); type: functional
# T8 sequence (P21462 whole entry): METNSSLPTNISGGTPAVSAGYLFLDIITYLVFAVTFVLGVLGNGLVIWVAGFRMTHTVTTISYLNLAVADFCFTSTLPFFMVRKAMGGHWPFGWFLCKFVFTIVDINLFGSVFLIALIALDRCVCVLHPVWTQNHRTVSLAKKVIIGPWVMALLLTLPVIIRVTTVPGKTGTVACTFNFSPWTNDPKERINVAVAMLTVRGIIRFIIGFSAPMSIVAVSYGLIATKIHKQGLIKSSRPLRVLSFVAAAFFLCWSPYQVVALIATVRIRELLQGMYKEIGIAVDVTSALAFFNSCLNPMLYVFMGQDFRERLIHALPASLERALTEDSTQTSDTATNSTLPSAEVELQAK
# [18] = HepG2 cell cytotoxicity, dose response, cytotoxicity control for non-replicating M. tuberculosis project (AID 489018); type: functional; details: Mycobacterium tuberculosis
# Streptococcus = test: Group A Streptococcus viability loss, dose response, counter-screen for streptokinase expression inhibitor project, luminescence, BacTiterGlo (AID 1915); type: functional, organism-based;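 further: potency for reduction of bacterial viability or growth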
# [19] = Vero E6 cell cytotoxicity, dose response, cytotoxicity control for non-replicating M. tuberculosis project, secondary assay (AID 492998); type: functional, VeroE6; details: Vero C1008
# Beta-galactosidase = Beta-galactosidase (Escherichia coli, UniProt Q8VNN2); type: functional
# INS1 = test: beta cell apoptosis inhibitors, cytokine rescue, dose response, luminescence, retest (AID 449756); type: functional, cell-based; details: Rattus norvegicus;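 further: cell death triggered by IL-1 beta plus TNF-alpha plus IFN-gamma mixture; protective hits raise ATP signal compared with cytokine alone wells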
# [20] = Luminescence Cell-Based Dose Confirmation HTS to Identify Inhibitors of Platelet Dense Granule Release. [Related pubchem assays: 1663 (Primary HTS), 1678 (Summary of Project)]; type: functional
# cells [21] = type: functional, cell-based
# cells [22] = type: functional, cell-based; remark: listed apart in the source
# [23] = biological target: T9, Kappa-type opioid receptor (Homo sapiens, UniProt P41145); type: functional
# T9 sequence (P41145 whole entry): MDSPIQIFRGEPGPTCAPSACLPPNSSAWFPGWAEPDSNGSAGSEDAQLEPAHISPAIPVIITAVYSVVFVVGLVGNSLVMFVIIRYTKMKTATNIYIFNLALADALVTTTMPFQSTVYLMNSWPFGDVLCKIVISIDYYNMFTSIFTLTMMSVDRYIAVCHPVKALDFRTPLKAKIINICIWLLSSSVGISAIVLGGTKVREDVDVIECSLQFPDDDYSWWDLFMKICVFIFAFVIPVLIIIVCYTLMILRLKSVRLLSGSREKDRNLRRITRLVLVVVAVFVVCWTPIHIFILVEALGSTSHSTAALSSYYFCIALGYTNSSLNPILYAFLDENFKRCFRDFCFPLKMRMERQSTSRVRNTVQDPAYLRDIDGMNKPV
# [24] = biological target: Luciferin 4-monooxygenase (Photinus pyralis, UniProt P08659); test: firefly luciferase enzyme inhibitors, dose response, biochemical, luminescence (AID 1891)
# [25] = biological target: T9, Kappa-type opioid receptor; type: functional; remark: listed apart in the source
smiles,measurement,setting,value
CC(C)(C)C1CCc2sc(C(=O)NNC(=O)CCl)cc2C1 (centres undefined),CC50,[1],3.58 µM (active)
same,EC50,[2],1.75 µM (active)
same,EC50,Protein RecA,1.47 µM (active)
same,EC50,[3],> 60 µM (inconclusive)
same,AC50,[4],4.29 µM (active)
same,IC50,[5],3.86 µM (active)
CC(C)(C)c1ccc(C(=O)Nc2cc(Cl)c(Br)cc2C(=O)O)cc1,IC50,Hexokinase,0.976 µM (active)
Cc1c(/N=N/c2c(-c3ccc([N+](=O)[O-])cc3)[nH]n(C(N)=S)c2=O)cccc1[N+](=O)[O-],IC50,[6],50 µM (inactive)
same,IC50,[7],7.01 µM (active)
same,IC50,[8],> 66 µM (inactive)
same,IC50,[9],> 50 µM (inactive)
same,IC50,[10],16.3 µM (active)
same,IC50,[11],3.37 µM (active)
same,IC50,[12],> 66 µM (inactive)
same,IC50,[13],1.71 µM (active)
same,IC50,[14],6.05 µM (active)
Cc1cccc2sc(N(CCN(C)C)C(=O)c3ccc4ccccc4c3)nc12,AC50,CAAX prenyl protease 2,> 100 µM (inactive)
O=C(Nc1nnc(-c2ccccc2Cl)o1)c1ccc(S(=O)(=O)N2CCCCCC2)cc1,EC50,[15],0.266 µM (active)
same,IC50,cells [16],14.2 µM (active)
same,CC50,[17],3.49 µM (active)
same,Ki,fMet-Leu-Phe receptor,> 66.7 µM (inactive)
same,CC50,[18],7.66 µM (active)
same,EC50,Streptococcus,0.793 µM (active)
same,CC50,[19],4.8 µM (active)
OB1OCc2cc(C(F)(F)F)ccc21,IC50,Hexokinase,> 25 µM (inactive)
O=C(Nc1ccncc1NC(=O)c1cccc([N+](=O)[O-])c1)c1cccc([N+](=O)[O-])c1,IC50,[9],> 50 µM (inactive)
same,IC50,[10],18.9 µM (active)
COc1ccc(C(=O)Nc2ccccc2C(=O)N/N=C/c2ccccn2)cc1OC,IC50,cells [16],36.9 µM (active)
same,EC50,Beta-galactosidase,> 31.5 µM (inactive)
same,AC50,INS1,2.45 µM (active)
same,EC50,[20],0.298 µM (active)
same,EC50,cells [21],8.88 µM (active)
same,CC50,[17],5.29 µM (active)
same,EC50,cells [22],16.6 µM (active)
same,CC50,[18],14.3 µM (active)
same,pIC50,[23],< 4.49
same,EC50,[24],1.3 µM (active)
same,IC50,[25],7.91 µM (active)
same,CC50,[19],> 20 µM (active)
